Molecular target: T1, PI3Kδ (p110δ) (Homo sapiens, UniProt O00329)
T1 construct: gene PIK3CD
Test: FRET-based in vitro kinase assay; class I PI3K binding also seen in KinomeScan ATP-site competition panel ([…])
Type: biochemical

T1 sequence (O00329 whole entry): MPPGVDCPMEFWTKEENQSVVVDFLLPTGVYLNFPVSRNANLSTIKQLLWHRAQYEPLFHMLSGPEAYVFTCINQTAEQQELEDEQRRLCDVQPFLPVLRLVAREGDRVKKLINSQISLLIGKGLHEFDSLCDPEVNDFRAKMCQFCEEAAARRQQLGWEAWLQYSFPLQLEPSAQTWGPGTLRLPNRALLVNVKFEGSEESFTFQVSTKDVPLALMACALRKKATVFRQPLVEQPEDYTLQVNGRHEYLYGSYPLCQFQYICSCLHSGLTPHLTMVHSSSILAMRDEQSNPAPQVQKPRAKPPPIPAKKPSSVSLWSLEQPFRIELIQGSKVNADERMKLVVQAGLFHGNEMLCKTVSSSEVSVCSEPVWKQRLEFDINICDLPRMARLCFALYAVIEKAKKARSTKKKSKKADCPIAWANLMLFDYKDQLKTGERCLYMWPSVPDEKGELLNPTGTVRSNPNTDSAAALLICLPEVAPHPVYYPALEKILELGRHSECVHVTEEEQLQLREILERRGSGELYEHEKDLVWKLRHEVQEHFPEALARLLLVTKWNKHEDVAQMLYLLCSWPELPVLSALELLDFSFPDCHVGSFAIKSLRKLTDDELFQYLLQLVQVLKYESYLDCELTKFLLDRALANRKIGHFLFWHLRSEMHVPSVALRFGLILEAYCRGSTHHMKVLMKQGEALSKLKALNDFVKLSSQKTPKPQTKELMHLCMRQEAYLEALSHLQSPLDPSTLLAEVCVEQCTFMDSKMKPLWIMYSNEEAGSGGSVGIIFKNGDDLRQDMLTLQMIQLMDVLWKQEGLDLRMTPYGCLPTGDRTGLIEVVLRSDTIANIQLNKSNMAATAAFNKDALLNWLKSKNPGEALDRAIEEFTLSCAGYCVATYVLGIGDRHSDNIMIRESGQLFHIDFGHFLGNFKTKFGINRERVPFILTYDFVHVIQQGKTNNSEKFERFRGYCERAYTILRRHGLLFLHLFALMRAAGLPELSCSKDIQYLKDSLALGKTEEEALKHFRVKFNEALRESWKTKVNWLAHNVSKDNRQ

## GS-649443 [Compound B]
  IC50: 0.28 nM

— paper PMC4961957, “Dose-Dependent Suppression of Cytokine production from T cells by a Novel Phosphoinositide 3-Kinase Delta Inhibitor” (Scientific Reports, 2016)
